US9212209B2, “Screening methods for spinal muscular atrophy” (Indiana University Research and Technology Corporation, priority 2012, dated 2015)
Converted amounts (≈) assume the structure as drawn. “And” between values parts separate entries of the source, which are not always exact repeats. Equal values may be shown once. Read-outs that look alike come from different tables or passages of the source.

How the values were obtained:
[1] = Liver microsome stability; conditions: for Stabilityin liver microsomes: Table 8; for Stability: Table 9; for half-life: mouse, liver microsomes
SMA mice = test: SMA mice, intraperitoneal dosing: lifespan, weight, time to right; assay type: in vivo, mouse; conditions: for lifespan / weight of the treated animals: IP once daily post-natal day 1-10, compounds in 20% DMSO, words; for lifespan: 3-4 animals each; for Time to right: individual pup, raw data
Method: The animal studies included new derivatives of LDN-76070 and LDN-75654. Mice were injected intraperitoneally once daily from post-natal day 1-10. […] Compounds LDN-212014, LDN-212016, LDN-212351, and LDN-212391 were injected into a cohort of animals (3-4 each). […] In the Kaplan-Meier curve that DMSO control decreased survival by 50%—the compounds were in […] (FIG. 26A).
LDN-212014 and LDN-76070 were further tested in A7 SMA model mice. Mice were dosed using compounds dissolved in 100% DMSO injected at 20 mg/kg with each dose administered once daily by intraperitoneal injection. As shown in the black curves in the Kaplan-Meier plot, control animals lived 4-5 days longer than the DMSO vehicle treated animals, indicating toxicity. […] In fact, the compounds display a statistically significant increase in survival compared with the untreated animals. These compounds extend the lifespan of SMA mice despite the DMSO toxicity.
In ‘time to right’ experiments, animals are placed on their backs and the duration for animals to right themselves is recorded. Animals that are unable to right in less than 30 seconds are scored as a failure. DMSO treated animals were unable to right themselves, while a small percentage of untreated animals display the ability to right themselves for up to postnatal day (PND) 11. A larger percentage of treated animals can right themselves past PND 17, and in the case of one animal as late as PND 21.

SMN2-luciferase reporter = SMN2-luciferase reporter assay (clonal HEK-293 SMN2-luc cells); assay type: cell-based, human; conditions: for EC50 / Emax: Homo sapiens; for Emax: read-out: Max % Activity; for Maximum % activation: Table 7; for Max. fold increase: cell-based reporter response to known SMN2 modulating compounds
Method: The reporter cell lines were plated at 50,000 cells per well in 96-well plates and incubated overnight. Compounds were added to each well and incubated at 37° C. overnight. The final DMSO concentration was 0.1%. Luciferase activity was assayed using either STEADYGLO (PROMEGA E2510) or DUALGLO (PROMEGA E2920) luciferase using the WALLAC ENVISION multilabel reader. For detailed assay conditions see Table 2A. All data points were transformed from CPS to percent increase over basal expression in the treated control wells (DMSO or H2O as appropriate).
Plates were sealed with porous paper tape and incubated for 24 hours. […] For comparison, data points were transformed from CPS to percent activation over basal expression in the DMSO treated control wells.
For comparison, all data points are expressed as percent increase over basal luciferase expression in the control cells.

[2] = Solubility in PBS / aqueous solution; assay type: physicochemical
[3] = test system: SMN-luciferase transcripts; test: qRT-PCR of SMN-luciferase transcripts in SMN2-luc cells; assay type: cell-based, human; conditions: 24 hours, relative to DMSO, normalized to GAPDH, aclarubicin at 300 nM, words
Method: Compounds were tested at three concentrations that display maximal activity in the luciferase assay. Cells were treated as described above for the luciferase assay. Cells were harvested by trypsinization, neutralized with trypsin inhibitor, and washed. RNA was isolated from the cells using TRIZOL Reagent (Invitrogen 15596-026). cDNA was generated using the IMPROM-II Reverse Transcription System (Promega A3801).
The forward primer pair recognizes the exon 5-6 junction, which includes a restriction site that was engineered into the reporter and will exclude amplification of endogenous SMN mRNA. The reverse primers recognize either exon 7 or luciferase for detection of full-length or total SMN-luciferase transcripts respectively. For a reference control, cDNA from the housekeeping gene glyceraldehyde-3-phosphate dehydrogenase (GAPDH) was amplified. The primers used include SMN exon5-forward ([…]) (SEQ ID NO: 3), luciferase-reverse ([…]) (SEQ ID NO: 4), exon7-reverse ([…]) (SEQ ID NO: 5), GAPDH-reverse (G3A) ([…]) (SEQ ID NO: 6) and GAPDH-forward (G3S) ([…]) (SEQ ID NO: 7). qPCR was performed as described in the protocol for iQ SYBRGREEN SUPERMIX (Biorad 170-8882) using an EPPENDORF Mastercycler ep realplex^4 Thermo Cycler. Reactions were incubated for a 10 minute, 94° C. hot start followed by 45 cycles of the following: 94° C. for 45 second, 60° C. for 15 seconds, 72° C. for 45 seconds. Melting curves for each reaction were obtained. Each sample was assayed in triplicate and every plate contained a 5-point cDNA dilution course to calculate amplification efficiency for each primer pair. The Pfaffl method was used to determine the change in transcript levels relative to the DMSO and normalized to GAPDH (Pfaffl, M. W., “A new mathematical model for relative quantification in real-time RT-PCR,” Nucleic Acids Res 2001, 29(9), 3e45).
Based on the new reporter design, it was predicted that this screen could detect increased SMN-luciferase protein levels caused by compounds that stimulate SMN2 transcription, exon 7 inclusion, or by increasing the half-life of the SMN mRNA or protein. Quantitative reverse transcriptase PCR (qRT-PCR) was used to analyze SMN-luciferase mRNAs. All assays used RNA from control and compound-treated SMN2-luc cells and primers pairs were chosen to amplify only the SMN-luciferase derived transcripts (FIG. 4A). A pair of primers were used that specifically detects both full-length (exon 7 included) and Δ7 (exon 7 excluded) SMN-luciferase transcripts (primers 1 and 3). To measure changes in exon 7 splicing efficiency, a primer pair was used that detects only the full-length (exon 7 included) SMN-luciferase transcript (primers 1 and 2).
For each sample, the percent increase in the amount of total SMN-luciferase transcripts (gray bar) and exon 7 included full-length SMN-luciferase transcripts (white bar) was plotted (FIG. 4). Compounds that increase transcription should show increased total SMN-luciferase transcripts (gray bar) with a proportional increase for exon 7 included transcripts (white bar), assuming that proper splicing of exon 7 is not rate limiting. Compounds that stimulate exon 7 inclusion should increase the amount of exon 7 included full-length transcript (white bar) detected with little to no change in the expression of total SMN-luciferase transcripts (gray bar). In these experiments, cells were treated with compound, harvested, and each cell pellet was divided for isolation of RNA and to assay luciferase activity. Each qRT-PCR sample was normalized to the housekeeping gene glyceraldehyde-3-phosphate dehydrogenase (GAPDH). The Pfaffl method was used to calculate the change in the amount of total SMN mRNA and determine whether compound treatments increased SMN transcripts.

[4] = HEK293, Table 7, read-out: EC50
[5] = HEK293, reporter assay, Table 6, read-out: Ec50
[6] = HEK293, reporter assay, Table 6
[7] = PBS, aqueous buffer, read-out: Maximal solubility in PBS
[8] = aqueous solution, Table 8, grades, read-out: Solubility in aqueous solution
[9] = T1/2 in liver microsomes, Table 7

| SMILES | Stabilityin liver microsomes [1] [min] | Stability [1] [min] | lifespan (SMA mice) | weight of the treated animals (SMA mice) | Time to right (SMA mice; PND 6) | Time to right (SMA mice; PND 7) | Time to right (SMA mice; PND 8) | Time to right (SMA mice; PND 9) | Time to right (SMA mice; PND 10) | Time to right (SMA mice; PND 11) | Time to right (SMA mice; PND 12) | Time to right (SMA mice; PND 13) | Time to right (SMA mice; PND 14) | Time to right (SMA mice; PND 15) | Time to right (SMA mice; PND 16) | Time to right (SMA mice; PND 17) | Time to right (SMA mice; PND 18) | EC50 (SMN2-luciferase reporter; [5]) [µM] | Active (SMN2-luciferase reporter; reporter assay, Table 6) | solubility [2, 8] [µM] | further results |
| --- | --- | --- | --- | --- | --- | --- | --- | --- | --- | --- | --- | --- | --- | --- | --- | --- | --- | --- | --- | --- | --- |
| CC(C)c1cc(C(=O)Nc2nc3ccccc3[nH]2)no1 [LDN-212016] | 3 | 3 | extension of lifespan | increased | Fail (Fail = >30 sec) | Fail (Fail = >30 sec) (3×) and 25 seconds | Fail (Fail = >30 sec) | Fail (Fail = >30 sec) | Fail (Fail = >30 sec) (3×) and 12 seconds | Fail (Fail = >30 sec) (3×) and 9 seconds | Fail (Fail = >30 sec) | dead and Fail (Fail = >30 sec) (2×) and 11 seconds | dead (2×) and Fail (Fail = >30 sec) (2×) | dead (3×) and Fail (Fail = >30 sec) | dead (3×) and Fail (Fail = >30 sec) | dead (3×) and Fail (Fail = >30 sec) | dead | 0.3 | Yes | < 500 | Time to right (SMA mice; PND 19): dead; Time to right (SMA mice; PND 20): dead; EC50 (SMN2-luciferase reporter; [4]): 0.3 µM; Emax (SMN2-luciferase reporter; [6]): 250%; Maximum % activation (SMN2-luciferase reporter): 162.4 ± 62.4%; solubility [2, 7]: 500 µM (≈ 135 µg/mL) |
| COc1cc2c(c(OC)c1OC)C(c1cc(Cl)ccc1F)CC(=O)N2 (stereo not drawn) [LDN-212351] | 45 | 45 | extension of lifespan | increased | dead and Fail (Fail = >30 sec) (2×) and 3 seconds | dead and Fail (Fail = >30 sec) (2×) and 5 seconds | dead and Fail (Fail = >30 sec) (3×) | dead and 13 seconds and Fail (Fail = >30 sec) (2×) | dead and Fail (Fail = >30 sec) (3×) | dead (3×) and Fail (Fail = >30 sec) | dead (3×) and Fail (Fail = >30 sec) | dead (3×) and Fail (Fail = >30 sec) | dead (3×) and Fail (Fail = >30 sec) | dead | dead | dead | dead | 12 | Yes | < 500 | half-life [1, 9]: 45 min; half-life ([1]; t1/2 in mouse liver microsomes, mouse liver microsomes): 45 min; Time to right (SMA mice; PND 19): dead; Time to right (SMA mice; PND 20): dead; EC50 (SMN2-luciferase reporter; [4]): 9.8 µM; Emax (SMN2-luciferase reporter; [6]): 150%; Maximum % activation (SMN2-luciferase reporter): 168.5 ± 10.6%; solubility [2, 7]: 500 µM (≈ 183 µg/mL) |
| CC[C@@]1(O)C[C@H](O[C@H]2C[C@H](N(C)C)[C@H](O[C@H]3C[C@H](O)[C@H](O[C@H]4CCC(=O)[C@H](C)O4)[C@H](C)O3)[C@H](C)O2)c2c(cc3c(c2O)C(=O)c2c(O)cccc2C3=O)[C@H]1C(=O)OC [Aclarubicin, aclarubicin, reference compound] |  |  |  |  |  |  |  |  |  |  |  |  |  |  |  |  |  |  |  |  | EC50 (SMN2-luciferase reporter; HEK293): 0.298 µM; Max. fold increase (SMN2-luciferase reporter): 10 fold; exon 7 included full-length SMN-luciferase transcripts [3]: lesser increase; total SMN-luciferase transcripts [3]: potent increase |
| COc1cc2c(c(OC)c1OC)C(c1cc(Cl)ccc1F)NC(=O)N2 (stereo not drawn) [LDN-212391] | 13 to 20 | 13 to 20 | extension of lifespan | increased | Fail (Fail = >30 sec) | Fail (Fail = >30 sec) | Fail (Fail = >30 sec) | Fail (Fail = >30 sec) (2×) and 18 seconds | Fail (Fail = >30 sec) (2×) and 20 seconds | Fail (Fail = >30 sec) | dead and Fail (Fail = >30 sec) (2×) | dead and Fail (Fail = >30 sec) (2×) | dead and Fail (Fail = >30 sec) (2×) | dead and Fail (Fail = >30 sec) (2×) | dead (2×) and Fail (Fail = >30 sec) | dead (2×) and Fail (Fail = >30 sec) | dead (2×) and Fail (Fail = >30 sec) | 4.4 | Yes | 500 to 2000 (≈ 183 to 734 µg/mL) | half-life [1, 9]: 13 min; Time to right (SMA mice; PND 19): dead (2×) and Fail (Fail = >30 sec); Time to right (SMA mice; PND 20): dead; EC50 (SMN2-luciferase reporter; [4]): 5 µM; Maximum % activation (SMN2-luciferase reporter): 238.3 ± 28.5%; Max % Activity (SMN2-luciferase reporter; reporter assay, Table 6): 267%; solubility [2, 7]: 1000 µM (≈ 367 µg/mL) |
| O=C(Nc1ncc(C2(O)CCC2)s1)c1nc2ccccc2[nH]1 [LDN-214098] | 59 |  |  |  |  |  |  |  |  |  |  |  |  |  |  |  |  | 0.15 | Yes | > 2000 | Emax (SMN2-luciferase reporter; [6]): 200% |
| CCCC(CCC)C(=O)O [Valproic Acid, valproic acid] |  |  |  |  |  |  |  |  |  |  |  |  |  |  |  |  |  |  |  |  | EC50 (SMN2-luciferase reporter; HEK293, cell-based reporter, known SMN2 modulating compounds, read-out: EC50): 10000 µM; Max. fold increase (SMN2-luciferase reporter): 2.5 fold; exon 7 included full-length SMN-luciferase transcripts [3]: increases; total SMN-luciferase transcripts [3]: increases; exon 7 included full-length SMN-luciferase transcripts ([3]; listed as VPA): increased; total SMN-luciferase transcripts ([3]; listed as VPA): increased |
